The values below come from US12630521B2, “Arylamides and methods of use thereof” (Genzyme Corporation, priority 2019, dated 2026).

Assay [1] addresses T1, human Cystic Fibrosis Transmembrane Conductance Regulator (CFTR) harboring the ΔF508 mutation (Homo sapiens, UniProt P13569, DEL508-508).
T1 construct: expressed in transfected cells; host or cells: H441 carcinoma cell line (G418 selection)
Put plainly: H441 cell Emax and EC50: HRP-tagged ΔF508-CFTR cell-surface luminescence assay. The conditions noted are these: H441 cells expressing HRP-tagged ΔF508-CFTR, 27° C. for two nights; for EC50: 15-point dose-response; for Emax: NCI-H441, % of maximum VX809 signal. It counts as cell-based. The method in brief:
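H441 cells expressing ΔF508-CFTR with HRP fused in extracellular loop 4 (CMV promoter), ~10K cells/well, 15-point dose range 24.5 to 0.001 μM, incubated at 27° C. for two nights. Surface CFTR read by Luminata Forte luminescence; Emax as % of maximum VX809 signal, plus EC50.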

Assay [2] addresses T2, CFTR (ΔF508 homozygous CF-HBE cells) (Homo sapiens, UniProt P13569, DEL508-508).
T2 construct: Primary human bronchial epithelial cells from a ΔF508 homozygous CF donor; host or cells: primary CF-HBE cells (ΔF508/ΔF508 donor)
The assay can be described thus: TECC24 AUC fold over DMSO @10 uM: CFTR-mediated transepithelial chloride transport in primary CF-HBE cells. The assay is classed as cell-based. The conditions noted are these: 10 μM test agent, 48 hours, forskolin-stimulated IEQ AUC divided by vehicle AUC. The method in brief:
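Primary ΔF508-homozygous CF bronchial epithelial cells were exposed to test agent for 48 h at 36.5° C, then VT and TEER were recorded with benzamil (10 μM), forskolin (10 μM) stimulation and CFTR inhibitor-172 (20 μM) at the end. AUC of equivalent Cl- current between forskolin and inhibitor is expressed as fold over DMSO vehicle.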

T1 sequence (P13569 with tags, fused parts or gaps DEL508-508): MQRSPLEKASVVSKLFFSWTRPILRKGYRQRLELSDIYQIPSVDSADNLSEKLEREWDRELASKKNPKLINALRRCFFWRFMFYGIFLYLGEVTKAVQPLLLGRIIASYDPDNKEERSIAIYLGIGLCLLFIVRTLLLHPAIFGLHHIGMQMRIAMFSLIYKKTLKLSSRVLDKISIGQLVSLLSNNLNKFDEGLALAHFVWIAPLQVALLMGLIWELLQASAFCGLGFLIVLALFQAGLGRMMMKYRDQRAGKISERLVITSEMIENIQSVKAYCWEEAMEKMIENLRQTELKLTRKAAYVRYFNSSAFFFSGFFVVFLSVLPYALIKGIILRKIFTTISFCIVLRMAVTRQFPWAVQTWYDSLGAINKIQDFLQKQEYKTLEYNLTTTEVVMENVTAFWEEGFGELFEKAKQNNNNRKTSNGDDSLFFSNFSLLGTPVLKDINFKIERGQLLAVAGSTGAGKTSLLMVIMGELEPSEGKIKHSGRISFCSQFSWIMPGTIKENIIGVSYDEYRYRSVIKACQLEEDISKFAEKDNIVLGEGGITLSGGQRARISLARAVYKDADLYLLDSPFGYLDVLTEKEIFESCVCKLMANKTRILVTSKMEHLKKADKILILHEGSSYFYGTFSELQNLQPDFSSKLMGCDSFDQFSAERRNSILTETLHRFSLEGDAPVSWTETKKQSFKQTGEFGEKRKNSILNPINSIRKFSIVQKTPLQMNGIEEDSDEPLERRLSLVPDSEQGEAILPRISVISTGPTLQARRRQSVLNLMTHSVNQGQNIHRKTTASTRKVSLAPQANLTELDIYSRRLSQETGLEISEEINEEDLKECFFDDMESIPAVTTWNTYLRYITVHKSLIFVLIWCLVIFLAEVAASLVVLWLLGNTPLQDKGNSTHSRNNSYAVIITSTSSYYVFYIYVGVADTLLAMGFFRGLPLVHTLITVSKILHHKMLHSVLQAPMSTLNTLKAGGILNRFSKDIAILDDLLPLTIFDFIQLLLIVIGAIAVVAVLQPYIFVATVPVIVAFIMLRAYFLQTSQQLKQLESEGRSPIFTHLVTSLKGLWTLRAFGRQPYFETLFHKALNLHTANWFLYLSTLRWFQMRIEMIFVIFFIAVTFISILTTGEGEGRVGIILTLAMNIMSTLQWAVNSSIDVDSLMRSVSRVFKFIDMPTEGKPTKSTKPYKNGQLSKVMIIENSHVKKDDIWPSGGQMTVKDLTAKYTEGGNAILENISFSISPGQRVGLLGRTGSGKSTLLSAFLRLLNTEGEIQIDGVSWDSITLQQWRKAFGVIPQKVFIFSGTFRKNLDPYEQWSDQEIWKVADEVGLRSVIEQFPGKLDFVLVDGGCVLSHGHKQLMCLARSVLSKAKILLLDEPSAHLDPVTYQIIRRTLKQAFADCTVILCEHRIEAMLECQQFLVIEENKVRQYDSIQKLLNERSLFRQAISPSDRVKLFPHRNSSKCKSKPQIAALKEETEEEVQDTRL
T2 sequence (P13569 with tags, fused parts or gaps DEL508-508): as above

One may read the EC50 as the concentration that produces a half-maximal response. Read a high EC50 as weaker potency. By Emax is commonly meant the size of the effect at its maximum, as opposed to the concentration needed. For the compound `CCC(C)(C)[C@H](NC(=O)c1ccc2sc(C)cc2c1OCc1ccc(C(F)(F)F)cc1)C(=O)O` [Compound 33-24, (2S)-3,3-dimethyl-2-(2-methyl-4-((4-(trifluoromethyl)benzyl)oxy)-benzo[b]thiophene-5-carboxamido)pentanoic acid], in assay [1], the EC50 was 412 nM and the maximal response (Emax) amounted to 270%. Besides, the “TECC24 AUC fold over DMSO” value in assay [2] is reported as “A (“A” refers to AUC @10 μM > 6)”.

Take `CCC(C)(C)[C@H](NC(=O)c1ccc2sc(C(F)(F)F)cc2c1OCc1ccc(C(F)(F)F)cc1)C(=O)O` [Compound 33-25, (2S)-3,3-dimethyl-2-(2-(trifluoromethyl)-4-((4-(trifluoromethyl)benzyl)oxy)-benzo[b]thiophene-5-carboxamido)pentanoic acid]: in assay [1], the response was half-maximal at 577 nM (EC50) and the Emax was determined as 200%. For the same compound, in assay [2], the “TECC24 AUC fold over DMSO” value is listed as “A (“A” refers to AUC @10 μM > 6)”.

In assay [1], `CCc1cc2ccc(C(=O)N[C@H](C(=O)O)C(C)(C)C)c(OCc3ccc(OC(F)(F)F)cc3)c2s1` [Compound 33-26, (2S)-2-(2-ethyl-7-((4-(trifluoromethoxy)benzyl)oxy)-benzo[b]thiophene-6-carboxamido)-3,3-dimethylbutanoic acid] gave an EC50 of 1090 nM and an Emax of 197%. In assay [2], the “TECC24 AUC fold over DMSO” value is reported as “B (“B” refers to AUC @10 μM between 4-6)”.

With `CCc1cc2c(OCc3ccc(C(F)(F)F)cc3)c(C(=O)N[C@H](C(=O)O)C(C)(C)CC)ccc2s1` [Compound 33-27, (2S)-2-(2-ethyl-4-((4-(trifluoromethyl)benzyl)oxy)-benzo[b]thiophene-5-carboxamido)-3,3-dimethylpentanoic acid], in assay [1], it took 309 nM to reach a half-maximal effect (EC50) and the Emax amounted to 262%. Further, the “TECC24 AUC fold over DMSO” value in assay [2] is “A (“A” refers to AUC @10 μM > 6)”.

In assay [1], `CCC(C)(C)[C@H](NC(=O)c1ccc2cc(C(F)(F)F)sc2c1OCc1ccc(C(F)(F)F)cc1)C(=O)O` [Compound 33-28, (2S)-3,3-dimethyl-2-(2-(trifluoromethyl)-7-((4-(trifluoromethyl)benzyl)oxy)-[b]thiophene-6-carboxamido)pentanoic acid] yielded an EC50 of 562 nM and an Emax of 130%. Besides, the “TECC24 AUC fold over DMSO” value in assay [2] is “A (“A” refers to AUC @10 μM > 6)”.

In assay [1], `CCC(C)(C)[C@H](NC(=O)c1ccc2cc(C(F)(F)F)sc2c1OCc1ccc(OC(F)(F)F)cc1)C(=O)O` [Compound 33-29, (2S)-3,3-dimethyl-2-(7-((4-(trifluoromethoxy)benzyl)oxy)-2-(trifluoromethyl)-benzo[b]thiophene-6-carboxamido)pentanoic acid] displayed an EC50 of 854 nM and an Emax of 152%. In addition, the “TECC24 AUC fold over DMSO” value in assay [2] was “B (“B” refers to AUC @10 μM between 4-6)”.

Consider `CCC(C)(C)[C@H](NC(=O)c1ccc2sc(C)cc2c1OCc1ccc(OC(F)(F)F)cc1)C(=O)O` [Compound 33-30, (2S)-3,3-dimethyl-2-(2-methyl-4-((4-(trifluoromethoxy)benzyl)oxy)-benzo[b]thiophene-5-carboxamido)pentanoic acid], for which, in assay [1], the EC50 was 102 nM and the Emax was 263%. Moreover, in assay [2], the “TECC24 AUC fold over DMSO” value is on record as “A (“A” refers to AUC @10 μM > 6)”.

Consider `CC(C)c1cc2ccc(C(=O)N[C@H](C(=O)O)C(C)(C)C)c(OCc3ccc(C(F)(F)F)cc3)c2s1` [Compound 33-31, (2S)-2-(2-isopropyl-7-((4-(trifluoromethyl)benzyl)oxy)-benzo[b]thiophene-6-carboxamido)-3,3-dimethylbutanoic acid], for which, in assay [1], the EC50 worked out at 532 nM and the maximal response (Emax) worked out at 131%. For the same compound, the “TECC24 AUC fold over DMSO” value in assay [2] is “C (“C” refers to AUC @10 μM < 4)”.

In assay [1], `CCC(C)(C)[C@H](NC(=O)c1ccc2cc(CCC(C)C)sc2c1OCc1ccc(C(F)(F)F)cc1)C(=O)O` [Compound 33-32, (2S)-2-(2-isopentyl-7-((4-(trifluoromethyl)benzyl)oxy)-benzo[b]thiophene-6-carboxamido)-3,3-dimethylpentanoic acid] showed an EC50 of 277 nM and an Emax of 168%. For the same compound, the “TECC24 AUC fold over DMSO” value in assay [2] was “B (“B” refers to AUC @10 μM between 4-6)”.

In assay [1], `CC(C)(C)[C@H](NC(=O)c1ccc2cc(Cl)sc2c1OCc1ccc(C(F)(F)F)cc1)C(=O)O` [Compound 33-33, (2S)-2-(2-chloro-7-((4-(trifluoromethyl)benzyl)oxy)-benzo[b]thiophene-6-carboxamido)-3,3-dimethylbutanoic acid] had an EC50 of 503 nM and an Emax of 177%. Besides, the “TECC24 AUC fold over DMSO” value in assay [2] is “B (“B” refers to AUC @10 μM between 4-6)”.

Regarding `CC(C)c1cc2c(OCc3ccc(C(F)(F)F)cc3)c(C(=O)N[C@H](C(=O)O)C(C)(C)C)ccc2s1` [Compound 33-34, (2S)-2-(2-isopropyl-4-((4-(trifluoromethyl)benzyl)oxy)-benzo[b]thiophene-5-carboxamido)-3,3-dimethylbutanoic acid], in assay [1], it took 637 nM to reach a half-maximal effect (EC50) and the Emax was 238%. For the same compound, the “TECC24 AUC fold over DMSO” value in assay [2] is recorded as “A (“A” refers to AUC @10 μM > 6)”.

As to `CCC(C)(C)[C@H](NC(=O)c1ccc2sc(C(F)(F)F)cc2c1OCc1ccc(OC(F)(F)F)cc1)C(=O)O` [Compound 33-35, (2S)-3,3-dimethyl-2-(4-((4-(trifluoromethoxy)benzyl)oxy)-2-(trifluoromethyl)-benzo[b]thiophene-5-carboxamido)pentanoic acid], in assay [1], the EC50 stood at 678 nM and the Emax came out at 199%. Besides, in assay [2], the “TECC24 AUC fold over DMSO” value is “A (“A” refers to AUC @10 μM > 6)”.

For the compound `CCC(C)(C)[C@H](NC(=O)c1ccc2sc(C(F)F)cc2c1OCc1ccc(C(F)(F)F)cc1)C(=O)O` [Compound 33-36, (2S)-2-(2-(difluoromethyl)-4-((4-(trifluoromethyl)benzyl)oxy)-benzo[b]thiophene-5-carboxamido)-3,3-dimethylpentanoic acid], in assay [1], the EC50 is 750 nM and the Emax worked out at 165%. The “TECC24 AUC fold over DMSO” value in assay [2] is “A (“A” refers to AUC @10 μM > 6)”.

As to `CCC(C)(C)[C@H](NC(=O)c1ccc2sc(Cl)c(C)c2c1OCc1ccc(OC(F)(F)F)cc1)C(=O)O` [Compound 34-1, (S)-2-(2-chloro-3-methyl-4-((4-(trifluoromethoxy)benzyl)oxy)-benzo[b]thiophene-5-carboxamido)-3,3-dimethylpentanoic acid], in assay [1], the EC50 came out at 358 nM and the Emax came to 179%. For the same compound, in assay [2], the “TECC24 AUC fold over DMSO” value was “A (“A” refers to AUC @10 μM > 6)”.

In the case of `Cc1c(Cl)sc2ccc(C(=O)N[C@H](C(=O)O)C3(C)CCC3)c(OCc3ccc(C(F)(F)F)cc3)c12` [Compound 34-2, (S)-2-(2-chloro-3-methyl-4-((4-(trifluoromethyl)benzyl)oxy)-benzo[b]thiophene-5-carboxamido)-2-(1-methylcyclobutyl)acetic acid], in assay [1], a half-maximal effect (EC50) was put at 1250 nM and the Emax came out at 133%. In assay [2], the “TECC24 AUC fold over DMSO” value is “A (“A” refers to AUC @10 μM > 6)”.

In assay [1], `CCC(C)(C)[C@H](NC(=O)c1ccc2sc(Cl)c(C)c2c1OCc1ccc(C(F)(F)F)cc1)C(=O)O` [Compound 34-3] displayed an EC50 of 406 nM and a maximal effect (Emax) of 222%. In addition, in assay [2], the “TECC24 AUC fold over DMSO” value is recorded as “A (“A” refers to AUC @10 μM > 6)”.

In assay [1], `Cc1c(Cl)sc2ccc(C(=O)N[C@H](C(=O)O)C(C)(C)C)c(OCc3ccc(OC(F)(F)F)cc3)c12` [Compound 34-4] registered a half-maximal effective concentration (EC50) of 281 nM and an Emax of 159%. Moreover, the “TECC24 AUC fold over DMSO” value in assay [2] is reported as “A (“A” refers to AUC @10 μM > 6)”.

In assay [1], `Cc1c(Cl)sc2ccc(C(=O)N[C@H](C(=O)O)C3(C)CC3)c(OCc3ccc(OC(F)(F)F)cc3)c12` [Compound 34-5, (S)-2-(2-chloro-3-methyl-4-((4-(trifluoromethoxy)benzyl)oxy)-benzo[b]thiophene-5-carboxamido)-2-(1-methylcyclopropyl)acetic acid] yielded an EC50 of 509 nM and an Emax of 106%. Besides, the “TECC24 AUC fold over DMSO” value in assay [2] was “A (“A” refers to AUC @10 μM > 6)”.

For `Cc1c(Cl)sc2ccc(C(=O)N[C@H](C(=O)O)C3(C)CCC3)c(OCc3ccc(OC(F)(F)F)cc3)c12` [Compound 34-6, (S)-2-(2-chloro-3-methyl-4-((4-(trifluoromethoxy)benzyl)oxy)-benzo[b]thiophene-5-carboxamido)-2-(1-methylcyclobutyl)acetic acid], in assay [1], the response was half-maximal at 1190 nM (EC50) and the Emax came to 155%. Further, the “TECC24 AUC fold over DMSO” value in assay [2] was “A (“A” refers to AUC @10 μM > 6)”.

In assay [1], `Cc1c(Cl)sc2ccc(C(=O)N[C@H](C(=O)O)C3(C)CC3)c(OCc3ccc(C(F)(F)F)cc3)c12` [Compound 34-7, (S)-2-(2-chloro-3-methyl-4-((4-(trifluoromethyl)benzyl)oxy)-benzo[b]thiophene-5-carboxamido)-2-(1-methylcyclopropyl)acetic acid] yielded an EC50 of 612 nM and an Emax of 84.2%. The “TECC24 AUC fold over DMSO” value in assay [2] is “A (“A” refers to AUC @10 μM > 6)”.
